Assay results from patent publication US7498460B2, “Isophthalic acid derivatives” (Bayer Healthcare AG, priority 2002, dated 2009).

Assays:
human CysLT1 receptor = biological target: T1, human CysLT1 receptor (Homo sapiens, UniProt Q9Y271); test: Cellular in vitro test to determine the CysLT1 activity (aequorin luminescence, LTD4 stimulation); type: cell-based; conditions: CHO K1 cells with aequorin and human CysLT1 receptor; agonist LTD4 3×10^−9 M
T1 construct: expressed in transfected cells; host or cells: CHO K1 (ATCC) constitutively expressing aequorin
T1 sequence (Q9Y271 1-337): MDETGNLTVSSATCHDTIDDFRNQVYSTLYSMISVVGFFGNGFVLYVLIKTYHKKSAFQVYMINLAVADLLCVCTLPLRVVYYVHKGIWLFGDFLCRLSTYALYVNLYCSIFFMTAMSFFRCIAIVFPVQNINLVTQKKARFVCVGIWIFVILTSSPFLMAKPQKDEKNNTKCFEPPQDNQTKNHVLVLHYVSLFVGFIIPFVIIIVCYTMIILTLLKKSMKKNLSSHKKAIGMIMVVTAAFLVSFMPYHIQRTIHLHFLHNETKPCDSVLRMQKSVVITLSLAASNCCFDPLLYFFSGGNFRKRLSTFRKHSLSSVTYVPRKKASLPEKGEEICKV
Text: 2. Cellular In Vitro Test to Determine the CysLT1 Activity
A recombinant cell line is used to identify antagonists of the human cysteinyl-leukotriene 1 receptor (CysLT1R) and to quantify the activity of the substances described herein. The cell is originally derived from a hamster ovary epithelial cell (Chinese Hamster Ovary, CHO K1, ATCC: American Type Culture Collection, Manassas, Va. 20108, USA). The test cell line constitutively expresses the calcium-sensitive photoprotein aequorin which, after reconstitution with the cofactor coelenterazine, emits light when the cytoplasmic calcium concentration is increased (Rizzuto R, Simpson A W, Brini M, Pozzan T.; Nature 358 (1992) 325-327). The cell is additionally stably transfected with the human CysLT1 receptor (Lynch et al., Nature 399 (1999) 789-793). The resulting CysLT1R test cell responds to stimulation of the recombinant CysLT1 receptor (agonist: leukotriene D4 (LTD4)) with an intracellular release of calcium ions, which can be quantified through the resulting aequorin luminescence with a suitable luminometer (Milligan G, Marshall F, Rees S. Trends in Pharmacological Sciences 17 (1996) 235-237). Preincubation with antagonists of the CysLT1 receptor reduces the calcium release induced by the agonist LTD4 and thus the measured amount of light.
(§1) Test procedure: The cells are plated out two days before the test in culture medium (DMEM/F12 with Glutamax, Gibco Cat.# 61965-026; 10% FCS, Gibco Cat.# 10270-106; 1.4 mM sodium pyruvate, Gibco Cat.# 11360-039; 1.8 mM sodium bicarbonate, Gibco Cat.# 25080-060; 10 mM HEPES, Gibco Cat.# 15290-026; now belongs to Invitrogen GmbH, 76131 Karlsruhe) in 384- (or 1536-)well microtitre plates and kept in a cell incubator (96% humidity, 5% V/V CO2, 37° C.). On the day of the test, the culture medium is replaced by Tyrode solution (in mM: 140 NaCl, 5 KCl, 1 MgCl2, 2 CaCl2, 20 glucose, 20 HEPES) which additionally contains the cofactor coelenterazine (50 μM), and the microtitre plate is then incubated for a further 3-4 hours. 15 minutes after the test substances have been transferred into the wells of the microtitre plate, the resulting light signal is measured after addition of the LTD4 (3×10^−9M) in the luminometer.

human CysLT2 receptor = biological target: T2, human CysLT2 receptor (Homo sapiens, UniProt Q9NS75); test: Cellular in vitro test to determine the CysLT2 activity (aequorin luminescence, LTD4 stimulation); type: cell-based; conditions: CHO K1 cells with aequorin and human CysLT2 receptor; agonist LTD4 3×10^−8 M
T2 construct: expressed in transfected cells; host or cells: CHO K1 (ATCC) constitutively expressing aequorin
T2 sequence (Q9NS75 1-346): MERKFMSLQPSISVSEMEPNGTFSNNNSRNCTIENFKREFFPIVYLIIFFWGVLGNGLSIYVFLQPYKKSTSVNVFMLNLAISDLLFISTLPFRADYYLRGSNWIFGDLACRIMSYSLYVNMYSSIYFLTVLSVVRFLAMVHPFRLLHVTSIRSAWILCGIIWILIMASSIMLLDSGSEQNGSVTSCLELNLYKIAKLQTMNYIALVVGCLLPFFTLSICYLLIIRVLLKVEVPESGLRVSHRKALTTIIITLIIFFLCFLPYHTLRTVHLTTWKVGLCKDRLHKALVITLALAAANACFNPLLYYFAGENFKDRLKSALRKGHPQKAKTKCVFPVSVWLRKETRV
Text: B. Assessment of the Physiological Activity Abbreviations: DMEM Dulbecco's modified Eagle medium FCS Fetal calf serum HEPES 4-(2-hydroxyethyl)-1-piperazineethanesulphonic acid 1. Cellular In Vitro Test to Determine the CysLT2 Activity
A recombinant cell line is used to identify antagonists of the human cysteinyl-leukotriene 2 receptor (CysLT2R) and to quantify the activity of the substances described herein. The cell is originally derived from a hamster ovary epithelial cell (Chinese Hamster Ovary, CHO K1, ATCC: American Type Culture Collection, Manassas, Va. 20108, USA). The test cell line constitutively expresses the calcium-sensitive photoprotein aequorin which, after reconstitution with the cofactor coelenterazine, emits light when the cytoplasmic calcium concentration is increased (Rizzuto R, Simpson A W, Brini M, Pozzan T.; Nature 358 (1992) 325-327). The cell is additionally stably transfected with the human CysLT2 receptor (Heise et.al., JBC 275 (2000) 30531-30536). The resulting CysLT2R test cell responds to stimulation of the recombinant CysLT2 receptor (agonists: leukotriene D4 (LTD4) and leukotriene C4 (LTC4)) with an intracellular release of calcium ions, which can be quantified through the resulting aequorin luminescence with a suitable luminometer (Milligan G, Marshall F, Rees S, Trends in Pharmacological Sciences 17 (1996) 235-237). Preincubation with antagonists of the CysLT2 receptor reduces the calcium release induced by the agonists LTD4 and LTC4 and thus the measured amount of light.
as §1, with “CaCl2;” for “CaCl2,”, “(3×10^−8 M)” for “(3×10^−9M)”

[1] = test system: isolated guinea pig hearts; test: Langendorff guinea pig heart: perfusion pressure and left ventricular pressure after LTC4
Description: 3. […] to Detect the Cardiovascular Effect: Langendorff Guinea Pig Heart
The heart is removed after opening the chest cavity of anaesthetized guinea pigs and is introduced into a conventional Langendorff apparatus. The coronary arteries are subjected to a constant volume (10 ml/min) perfusion, and the perfusion pressure arising thereby is recorded via an appropriate pressure transducer. A decrease in the perfusion pressure in this arrangement corresponds to a relaxation of the coronary arteries. At the same time, the pressure developed by the heart during each contraction (the left ventricular pressure) is measured by a balloon introduced into the left ventricle, and a further pressure transducer. The rate at which the isolated heart beats is found by calculation from the number of contractions per unit time.
To detect the effect of CysLT2 receptor antagonists, the perfusion with the agonist LTC4 (10^−8 M) is started 15 minutes before addition of increasing concentrations of the test substance (10^−8 to 10^−6 M).

[2] = LTC4 (10^−8M) + test sub. (10^−6M)
[3] = LTC4 (10^−8M) + test sub. (10^−7M)
[4] = LTC4 (10^−8M) + test sub. (10^−8M)

Structure (SMILES): O=C(O)c1ccc(OCCCc2ccc(OCCCC3CCCCC3)cc2)c(C(=O)NC2CCCC(C(=O)O)C2)c1 (stereo not shown) [Example 23, 3-{[(3-Carboxycyclohexyl)amino]carbonyl}-4-{3-[4-(3-cyclohexylpropoxy)phenyl]-propoxy}benzoic acid]
- melting point: 160 °C
- IC50 (human CysLT1 receptor): 2 µM
- IC50 (human CysLT2 receptor): 0.005 µM
- Left ventricular pressure relative to control without LTC4 [1, 2]: 97%
- Perfusion pressure relative to control without LTC4 [1, 2]: 111%
- Left ventricular pressure relative to control without LTC4 [1, 3]: 84%
- Perfusion pressure relative to control without LTC4 [1, 3]: 127%
- Left ventricular pressure relative to control without LTC4 [1, 4]: 72%
- Perfusion pressure relative to control without LTC4 [1, 4]: 133%

Structure (SMILES): O=C(O)c1ccc(OCCCc2ccc(OCCCCOc3ccccc3)cc2)c(C(=O)NC2CCC(C(=O)O)CC2)c1 (stereo not shown) [Example 16, 3-{[(4-Carboxycyclohexyl)amino]carbonyl}-4-{3-[4-(4-phenoxybutoxy)phenyl]-propoxy}benzoic acid]
- melting point: 163 to 165 °C

Structure (SMILES): O=C(O)c1ccc(OCCCc2ccc(OCCCCOc3ccccc3)cc2)c(C(=O)NC2CCCC(C(=O)O)C2)c1 (racemic) [Example 12, 3-{[(3-Carboxycyclohexyl)amino]carbonyl}-4-{3-[4-(4-phenoxybutoxy)phenyl]-propoxy}benzoic acid (racemate A)]
- melting point: > 210 °C

Structure (SMILES): O=C(O)c1ccc(OCCCc2ccc(OCCCCOc3ccccc3)cc2)c(C(=O)N2CCC(C(=O)O)CC2)c1 [Example 15, 1-(5-Carboxy-2-{3-[4-(4-phenoxybutoxy)phenyl]propoxy}benzoyl)-4-piperidine-carboxylic acid]
- melting point: 142 to 143 °C

Structure (SMILES): O=C(O)c1ccc(OCCCc2ccc(OCc3ccc(-c4ccccc4)cc3)cc2)c(C(=O)N2CCC(C(=O)O)CC2)c1 [Example 13, 1-(2-{3-[4-(1,1′-Biphenyl-4-ylmethoxy)phenyl]propoxy}-5-carboxybenzoyl)-4-piperidinecarboxylic acid]
- melting point: 193 to 194 °C

Structure (SMILES): O=C(O)CC1CCN(C(=O)c2cc(C(=O)O)ccc2OCCCc2ccc(OCCCCOc3ccccc3)cc2)CC1 [Example 18, 3-{[4-(Carboxymethyl)-1-piperidinyl]carbonyl}-4-{3-[4-(4-phenoxybutoxy)phenyl]-propoxy}benzoic acid]
- melting point: 192 °C

Structure (SMILES): CC(C)Oc1ccc(COc2ccc(CCCOc3ccc(C(=O)O)cc3C(=O)NC3CCCC(C(=O)O)C3)cc2)cc1 (stereo not shown) [Example 33, 3-{[(3-Carboxycyclohexyl)amino]carbonyl}-4-(3-{4-[(4-isopropoxybenzyl)oxy]-phenyl}propoxy)benzoic acid]
- IC50 (human CysLT1 receptor): > 10 µM
- IC50 (human CysLT2 receptor): 0.015 µM
- Left ventricular pressure relative to control without LTC4 [1, 2]: 84%
- Perfusion pressure relative to control without LTC4 [1, 2]: 108%
- Left ventricular pressure relative to control without LTC4 [1, 3]: 57%
- Perfusion pressure relative to control without LTC4 [1, 3]: 121%
- Left ventricular pressure relative to control without LTC4 [1, 4]: 44%
- Perfusion pressure relative to control without LTC4 [1, 4]: 122%

Structure (SMILES): O=C(O)c1ccc(OCCCc2ccc(OCCCCOc3ccccc3)cc2)c(C(=O)NC2CCCC(C(=O)O)C2)c1 (racemic) [Example 11, 3-{[(3-Carboxycyclohexyl)amino]carbonyl}-4-{3-[4-(4-phenoxybutoxy)phenyl]-propoxy}benzoic acid (racemate B)]
- melting point: 182 to 183 °C
- IC50 (human CysLT1 receptor): > 10 µM
- IC50 (human CysLT2 receptor): 0.035 µM
- Left ventricular pressure relative to control without LTC4 [1, 2]: 79%
- Perfusion pressure relative to control without LTC4 [1, 2]: 108%
- Left ventricular pressure relative to control without LTC4 [1, 3]: 60%
- Perfusion pressure relative to control without LTC4 [1, 3]: 112%
- Left ventricular pressure relative to control without LTC4 [1, 4]: 44%
- Perfusion pressure relative to control without LTC4 [1, 4]: 125%

Structure (SMILES): O=C(O)c1ccc(OCCCc2ccc(OCCCC3CCCCC3)cc2)c(C(=O)N2CCC(C(=O)O)CC2)c1 [Example 31, 1-(5-Carboxy-2-{3-[4-(3-cyclohexylpropoxy)phenyl]propoxy}benzoyl)piperidine-4-carboxylic acid]
- melting point: 183.4 to 184.5 °C
- IC50 (human CysLT1 receptor): 2.5 µM
- IC50 (human CysLT2 receptor): 0.014 µM
- Left ventricular pressure relative to control without LTC4 [1, 2]: 87%
- Perfusion pressure relative to control without LTC4 [1, 2]: 112%
- Left ventricular pressure relative to control without LTC4 [1, 3]: 81%
- Perfusion pressure relative to control without LTC4 [1, 3]: 123%
- Left ventricular pressure relative to control without LTC4 [1, 4]: 67%
- Perfusion pressure relative to control without LTC4 [1, 4]: 128%
